# Reference: ChEMBL document CHEMBL1201862, “PubChem BioAssay data set” (2004)
#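 Step 1: Grow cells in 96-well plates. Step 2: Expose to compound for 48 hours at 5 concentrations. Step 3: Interpolate endpoints linearly; if unreached, use highest concentration. Abbreviation: GI50, concentration required for 50% inhibition of growth.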 The source made the active and inactive calls. Rule as the data show it: active = GI50 up to about 1.1 µM and inactive = higher.
# How the values were obtained:
# Experiment in all cases: NCI tumour cell line growth inhibition, 48 h
# 786-0 = system: 786-0
# A498 = system: A498
# A549 = system: A549
# ACHN = system: ACHN
# CAKI-1 = system: CAKI-1
# CCRF-CEM = system: CCRF-CEM
# COLO 205 = system: COLO 205
# DU-145 = system: DU-145
# EKVX = system: EKVX
# HCC 2998 = system: HCC 2998
# HCT-116 = system: HCT-116
# HCT-15 = system: HCT-15
# HL-60 = system: HL-60
# HOP-62 = system: HOP-62
# HOP-92 = system: HOP-92
# HT-29 = system: HT-29
# Hs-578T = system: Hs-578T
# IGROV-1 = system: IGROV-1
# K562 = system: K562
# KM12 = system: KM12
# LOX IMVI = system: LOX IMVI
# MDA-MB-231 = system: MDA-MB-231
# MDA-MB-435 = system: MDA-MB-435
# MOLT-4 = system: MOLT-4
# Malme-3M = system: Malme-3M
# NCI-H226 = system: NCI-H226
# NCI-H23 = system: NCI-H23
# NCI-H460 = system: NCI-H460
# NCI-H522 = system: NCI-H522
# NCI/ADR-RES = system: NCI/ADR-RES
# OVCAR-3 = system: OVCAR-3
# OVCAR-5 = system: OVCAR-5
# OVCAR-8 = system: OVCAR-8
# PC-3 = system: PC-3
# RPMI-8226 = system: RPMI-8226
# SF-268 = system: SF-268
# SF-295 = system: SF-295
# SF-539 = system: SF-539
# SK-MEL-28 = system: SK-MEL-28
# SK-MEL-2 = system: SK-MEL-2
# SK-MEL-5 = system: SK-MEL-5
# SK-OV-3 = system: SK-OV-3
# SN12C = system: SN12C
# SNB-19 = system: SNB-19
# SNB-75 = system: SNB-75
# SR = system: SR
# SW-620 = system: SW-620
# T47D = system: T47D
# TK-10 = system: TK-10
# U-251 = system: U-251
# UACC-257 = system: UACC-257
# UACC-62 = system: UACC-62
# UO-31 = system: UO-31
# M14 = system: M14
# MCF7 = system: MCF7
# MDA-N = system: MDA-N
# RXF 393 = system: RXF 393
smiles,measurement,setting,value
OCC(O)C1OC2CC1Nc1ccccc1N2 (stereo not drawn),GI50,786-0,> 100 µM (inactive)
same,GI50,A498,8.85 µM (inactive)
same,GI50,A549,> 100 µM (inactive)
same,GI50,ACHN,> 100 µM (inactive)
same,GI50,CAKI-1,> 100 µM (inactive)
same,GI50,CCRF-CEM,78.2 µM (inactive)
same,GI50,COLO 205,> 100 µM (inactive)
same,GI50,DU-145,> 100 µM (inactive)
same,GI50,EKVX,> 100 µM (inactive)
same,GI50,HCC 2998,> 100 µM (inactive)
same,GI50,HCT-116,> 100 µM (inactive)
same,GI50,HCT-15,> 100 µM
same,GI50,HL-60,> 100 µM (inactive)
same,GI50,HOP-62,> 100 µM (inactive)
same,GI50,HOP-92,> 100 µM (inactive)
same,GI50,HT-29,> 100 µM (inactive)
same,GI50,Hs-578T,> 100 µM (inactive)
same,GI50,IGROV-1,> 100 µM (inactive)
same,GI50,K562,> 100 µM (inactive)
same,GI50,KM12,> 100 µM (inactive)
same,GI50,LOX IMVI,> 100 µM (inactive)
same,GI50,MDA-MB-231,> 100 µM (inactive)
same,GI50,MDA-MB-435,> 100 µM (inactive)
same,GI50,MOLT-4,> 100 µM (inactive)
same,GI50,Malme-3M,> 100 µM (inactive)
same,GI50,NCI-H226,> 100 µM (inactive)
same,GI50,NCI-H23,> 100 µM (inactive)
same,GI50,NCI-H460,> 100 µM (inactive)
same,GI50,NCI-H522,> 100 µM (inactive)
same,GI50,NCI/ADR-RES,> 100 µM (inactive)
same,GI50,OVCAR-3,> 100 µM (inactive)
same,GI50,OVCAR-5,> 10 µM (inactive)
same,GI50,OVCAR-8,> 100 µM (inactive)
same,GI50,PC-3,> 100 µM (inactive)
same,GI50,RPMI-8226,> 100 µM (inactive)
same,GI50,SF-268,> 100 µM (inactive)
same,GI50,SF-295,> 100 µM (inactive)
same,GI50,SF-539,> 88.7 µM (inactive)
same,GI50,SK-MEL-28,> 100 µM (inactive)
same,GI50,SK-MEL-2,> 100 µM (inactive)
same,GI50,SK-MEL-5,> 100 µM (inactive)
same,GI50,SK-OV-3,> 100 µM (inactive)
same,GI50,SN12C,> 100 µM (inactive)
same,GI50,SNB-19,> 100 µM (inactive)
same,GI50,SNB-75,> 100 µM (inactive)
same,GI50,SR,> 10 µM (inactive)
same,GI50,SW-620,> 100 µM (inactive)
same,GI50,T47D,> 100 µM (inactive)
same,GI50,TK-10,> 100 µM (inactive)
same,GI50,U-251,> 100 µM (inactive)
same,GI50,UACC-257,> 100 µM (inactive)
same,GI50,UACC-62,> 100 µM (inactive)
same,GI50,UO-31,> 100 µM (inactive)
COc1ccc(C(=O)/C=C/c2ccc(OCC(=N)N)cc2)cc1OC,GI50,786-0,5.04 µM (inactive)
same,GI50,A549,5.97 µM (inactive)
same,GI50,CAKI-1,5.05 µM (inactive)
same,GI50,CCRF-CEM,2.61 µM (inactive)
same,GI50,COLO 205,3.34 µM (inactive)
same,GI50,DU-145,> 10 µM (inactive)
same,GI50,EKVX,7.36 µM (inactive)
same,GI50,HCC 2998,6.4 µM (inactive)
same,GI50,HCT-15,> 10 µM
same,GI50,HL-60,1.95 µM (inactive)
same,GI50,HOP-62,5.75 µM (inactive)
same,GI50,HT-29,3.1 µM (inactive)
same,GI50,IGROV-1,> 10 µM (inactive)
same,GI50,K562,2.37 µM (inactive)
same,GI50,KM12,2.64 µM (inactive)
same,GI50,LOX IMVI,2.52 µM (inactive)
same,GI50,M14,5.87 µM (inactive)
same,GI50,MCF7,3.24 µM (inactive)
same,GI50,MDA-MB-231,> 10 µM (inactive)
same,GI50,MDA-N,3.6 µM (inactive)
same,GI50,Malme-3M,> 10 µM (inactive)
same,GI50,NCI-H23,3.33 µM (inactive)
same,GI50,OVCAR-8,3.62 µM (inactive)
same,GI50,PC-3,3.84 µM (inactive)
same,GI50,RPMI-8226,2.34 µM (inactive)
same,GI50,RXF 393,4.63 µM (inactive)
same,GI50,SF-268,3.61 µM (inactive)
same,GI50,SF-295,> 10 µM (inactive)
same,GI50,SK-MEL-28,8.73 µM (inactive)
same,GI50,SK-MEL-5,7.93 µM (inactive)
same,GI50,SK-OV-3,4.01 µM (inactive)
same,GI50,SN12C,> 10 µM (inactive)
same,GI50,SNB-75,4.53 µM (inactive)
same,GI50,SR,1.64 µM (inactive)
same,GI50,SW-620,3.84 µM (inactive)
same,GI50,T47D,3.86 µM (inactive)
same,GI50,TK-10,> 10 µM (inactive)
same,GI50,UACC-257,6.79 µM (inactive)
same,GI50,UACC-62,> 10 µM (inactive)
C=C(C)CCC1C=[N+]([O-])OC(C)(C)C1(C)C (stereo not drawn),GI50,786-0,> 100 µM (inactive)
same,GI50,A498,> 100 µM (inactive)
same,GI50,A549,49.3 µM (inactive)
same,GI50,ACHN,> 100 µM (inactive)
same,GI50,CAKI-1,> 100 µM (inactive)
same,GI50,CCRF-CEM,33.3 µM (inactive)
same,GI50,COLO 205,> 100 µM (inactive)
same,GI50,DU-145,> 100 µM (inactive)
same,GI50,EKVX,> 100 µM (inactive)
same,GI50,HCC 2998,> 100 µM (inactive)
same,GI50,HCT-116,> 100 µM (inactive)
same,GI50,HCT-15,84.3 µM
same,GI50,HL-60,30.1 µM (inactive)
same,GI50,HOP-62,> 100 µM (inactive)
same,GI50,HOP-92,> 100 µM (inactive)
same,GI50,HT-29,> 100 µM (inactive)
same,GI50,Hs-578T,> 100 µM (inactive)
same,GI50,IGROV-1,> 100 µM (inactive)
same,GI50,K562,> 100 µM (inactive)
same,GI50,KM12,> 100 µM (inactive)
same,GI50,LOX IMVI,80 µM (inactive)
same,GI50,M14,> 100 µM (inactive)
same,GI50,MCF7,73.5 µM (inactive)
same,GI50,MDA-MB-231,> 100 µM (inactive)
same,GI50,MDA-MB-435,> 100 µM (inactive)
same,GI50,MDA-N,> 100 µM (inactive)
same,GI50,MOLT-4,> 100 µM (inactive)
same,GI50,NCI-H226,> 100 µM (inactive)
same,GI50,NCI-H460,> 100 µM (inactive)
same,GI50,NCI-H522,> 100 µM (inactive)
same,GI50,NCI/ADR-RES,> 100 µM (inactive)
same,GI50,OVCAR-3,> 100 µM (inactive)
same,GI50,OVCAR-5,> 100 µM (inactive)
same,GI50,OVCAR-8,> 100 µM (inactive)
same,GI50,RPMI-8226,> 100 µM (inactive)
same,GI50,RXF 393,> 100 µM (inactive)
same,GI50,SF-268,> 100 µM (inactive)
same,GI50,SF-295,> 100 µM (inactive)
same,GI50,SF-539,> 100 µM (inactive)
same,GI50,SK-MEL-5,> 100 µM (inactive)
same,GI50,SK-OV-3,> 100 µM (inactive)
same,GI50,SN12C,> 100 µM (inactive)
same,GI50,SNB-75,> 100 µM (inactive)
same,GI50,SR,> 100 µM (inactive)
same,GI50,SW-620,39 µM (inactive)
same,GI50,T47D,> 100 µM (inactive)
same,GI50,TK-10,> 100 µM (inactive)
same,GI50,U-251,> 100 µM (inactive)
same,GI50,UACC-257,> 100 µM (inactive)
same,GI50,UACC-62,79.1 µM (inactive)
same,GI50,UO-31,> 100 µM (inactive)
